Test results from US20240083857A1, “2-Methyl-Quinazolines” (Bayer Pharma Aktiengesellschaft, priority 2017, published 2024).

Columns and labels:
[1] = target: K-Ras^G12C : hSOS1 interaction (Homo sapiens, UniProt Q07889); assay: Biochemical assay 1: K-Ras^G12C interaction assay with hSOS1 (HTRF); assay type: binding; conditions: read-out: Assay 1 (KRAS-SOS Interaction) activity expressed as IC50
[2] = target: human SOS1 (loading of human K-Ras^G12C-GDP with fluorescent GTP-analog) (Homo sapiens, UniProt Q07889); assay: Biochemical assay 3: K-Ras^G12C activation assay by hSOS1 (HTRF); conditions: no GTP; read-out: Assay 3 (KRAS-Activation by SOS no GTP) activity expressed as IC50

## COc1cc2nc(C)nc(N[C@H](C)c3cccc(-c4ccn[nH]4)c3)c2cc1OC [Example 337, 6,7-dimethoxy-2-methyl-N-{(1R)-1-[3-(1H-pyrazol-5-yl)phenyl]ethyl}quinazolin-4-amine]
[1]
  IC50: 0.344 µM
[2]
  IC50: 1.35 µM

## COc1cc2nc(C)nc(N[C@H](C)c3cccc(-c4cnn(C)c4)c3)c2cc1OC [Example 338, 6,7-dimethoxy-2-methyl-N-{(1R)-1-[3-(1-methyl-1H-pyrazol-4-yl)phenyl]ethyl}quinazolin-4-amine]
[1]
  IC50: 0.325 µM
[2]
  IC50: 1.39 µM

## COc1cc2nc(C)nc(N[C@H](C)c3cccc(-c4ccnn4C)c3)c2cc1OC [Example 339, 6,7-dimethoxy-2-methyl-N-{(1R)-1-[3-(1-methyl-1H-pyrazol-5-yl)phenyl]ethyl}quinazolin-4-amine]
[1]
  IC50: 0.815 µM
[2]
  IC50: 1.99 µM

## COc1cc2nc(C)nc(N[C@H](C)c3cccc(-n4ccnc4)c3)c2cc1OC [Example 340, N-{(1R)-1-[3-(1H-imidazol-1-yl)phenyl]ethyl}-6,7-dimethoxy-2-methylquinazolin-4-amine]
[1]
  IC50: 0.344 µM
[2]
  IC50: 1.39 µM
